How the values were obtained:
[1] = system: Green Peach Aphid (Myzus Persicae); assay: Insecticidal test for green peach aphid in foliar spray assay (col. MYZUPE); type: in vivo; conditions: Myzus persicae, 72 h, Abbott's correction formula, read-out: MYZUPE 200 ppm (Corrected % Control, rating)
Outline: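 Corrected % control derives from microscope counts of live aphids per plant, treated against diluent-only checks, 3 days after foliar spraying at ~25 °C and 40% RH. Test solution was 200 ppm in 0.025% aqueous Tween 20, applied to both leaf sides of infested cabbage seedlings, four pots each.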

[2] = system: Sweetpotato Whitefly-Crawler (Bemisia Tabaci); assay: Insecticidal test for sweetpotato whitefly-crawler in foliar spray assay (col. BEMITA); type: in vivo; conditions: Bemisia tabaci, Abbott's correction formula, read-out: BEMITA 200 ppm (Corrected % Control, rating)
Outline: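 Percent control, Abbott-corrected against diluent-sprayed plants, from microscope counts of live nymphs 8-9 days after treatment. Test solution at 200 ppm in 0.025% aqueous Tween 20 applied to both leaf sides of egg-infested cotton after a 5-6 day hatch period (82° F, 50% RH).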

| SMILES | pest or weed control at 200 ppm [1] [%] | pest or weed control at 200 ppm [2] [%] |
| --- | --- | --- |
| CCN(C(=O)CC(C)(C)SC)c1sc(-c2cccnc2)nc1Cl [Compound 490] | 80 to 100 | < 80 |
| Cc1nc(-c2cccnc2)sc1N(C)C(=O)OC(C)(C)C(F)(F)F [Compound 492] | < 80 | 80 to 100 |
| Cc1nc(-c2cccnc2)sc1N(C)C(=O)OC1(C)CCCCC1 [Compound 493] | 80 to 100 | 80 to 100 |
| CCN(C(=O)C(CSC)C(=O)CCSC)c1sc(-c2cccnc2)nc1Cl (stereo not shown) [Compound 496] | 80 to 100 | < 80 |
| CSCCC(=O)N(C)c1sc(-c2cccnc2)nc1Br [Compound 498] | 80 to 100 | 80 to 100 |
| CSC(C)CC(=O)N(C)c1sc(-c2cccnc2)nc1Br (stereo not shown) [Compound 499] | 80 to 100 | < 80 |
| CSCCC(=O)N(C)c1sc(-c2cncc(Cl)c2)nc1Cl [Compound 500] | 80 to 100 | 80 to 100 |
| CN(C(=O)CC[S+](C)[O-])c1sc(-c2cncc(Cl)c2)nc1Cl (stereo not shown) [Compound 501] | 80 to 100 | 80 to 100 |
| CC(CC(=O)N(C)c1sc(-c2cccnc2)nc1Br)[S+](C)[O-] (stereo not shown) [Compound 504] | 80 to 100 | 80 to 100 |
| CSCC(C)C(=O)N(C)c1sc(-c2cccnc2)nc1Br (stereo not shown) [Compound 505] | 80 to 100 | 80 to 100 |
| CN(C(=O)CC[S+](C)[O-])c1sc(-c2cccnc2)nc1Br (stereo not shown) [Compound 506] | 80 to 100 | < 80 |
| CN(C(=O)CCS(C)(=O)=O)c1sc(-c2cccnc2)nc1Br [Compound 507] | 80 to 100 | 80 to 100 |
| CSCCC(=O)N(C)c1sc(-c2cncc(C#N)c2)nc1Cl [Compound 508] | < 80 | 80 to 100 |
| CSCCC(=O)N(C)c1sc(-c2cncnc2)nc1Cl [Compound 509] | 80 to 100 | 80 to 100 |
| CSCCNC(=S)N(C)c1sc(-c2cncc(F)c2)nc1Cl [Compound 511] | 80 to 100 | < 80 |
| CN(C(=S)NCCSc1ccc(Cl)cc1)c1sc(-c2cccnc2)nc1Cl [Compound 512] | < 80 | 80 to 100 |
| COc1cncc(-c2nc(Cl)c(N(C)C(=O)CCSC)s2)c1 [Compound 513] | < 80 | < 80 |
| COc1cncc(-c2nc(Cl)c(N(C)C(=O)CC[S+](C)[O-])s2)c1 (stereo not shown) [Compound 514] | < 80 | < 80 |
| CSC(C)C(C)C(=O)N(C)c1sc(-c2cccnc2)nc1Cl (stereo not shown) [Compound 516] | 80 to 100 | < 80 |
| CN(C(=O)C1CCSC1)c1sc(-c2cccnc2)nc1Cl (stereo not shown) [Compound 517] | 80 to 100 | < 80 |
| CCOC1(N(C(=O)OC(C)(C)C)c2sc(-c3cccnc3)nc2C)CC1 [Compound 518] | 80 to 100 | < 80 |

| SMILES | pest or weed control at 200 ppm [1] [%] | pest or weed control at 200 ppm [2] [%] |
| --- | --- | --- |
| CC(CC(=O)N(C)c1sc(-c2cccnc2)nc1Cl)[S+](C)[O-] (stereo not shown) [Compound 520] | 80 to 100 | < 80 |
| CN(C(=O)CC(C)(C)[S+](C)[O-])c1sc(-c2cccnc2)nc1Cl (stereo not shown) [Compound 521] | 80 to 100 | < 80 |
| CC(C(=O)N(C)c1sc(-c2cccnc2)nc1Cl)C(C)[S+](C)[O-] (stereo not shown) [Compound 522] | 80 to 100 | < 80 |
| CN(C(=O)C1CC[S+]([O-])C1)c1sc(-c2cccnc2)nc1Cl (stereo not shown) [Compound 523] | 80 to 100 | < 80 |
| CCN(C(=O)CC(C)[S+](C)[O-])c1sc(-c2cccnc2)nc1Cl (stereo not shown) [Compound 524] | 80 to 100 | 80 to 100 |
| CCN(C(=O)c1ccsc1)c1sc(-c2cccnc2)nc1Cl [Compound 527] | < 80 | 80 to 100 |
| CCN(C(=O)Cc1ccsc1)c1sc(-c2cccnc2)nc1Cl [Compound 528] | < 80 | 80 to 100 |
| CCCCC(=O)N(CC)c1sc(-c2cccnc2)nc1Cl [Compound 530] | 80 to 100 | 80 to 100 |
| CCC(C)C(=O)N(CC)c1sc(-c2cccnc2)nc1Cl (stereo not shown) [Compound 531] | 80 to 100 | 80 to 100 |
| CCN(C(C)=O)c1sc(-c2cccnc2)nc1Cl [Compound 533] | 80 to 100 | 80 to 100 |
| C=C(CC)C(=O)N(CC)c1sc(-c2cccnc2)nc1Cl [Compound 534] | < 80 | 80 to 100 |
| C=CC(=O)N(CC)c1sc(-c2cccnc2)nc1Cl [Compound 535] | < 80 | 80 to 100 |
| CCN(C(=O)CC(C)(C)[S+](C)[O-])c1sc(-c2cccnc2)nc1Cl (stereo not shown) [Compound 537] | 80 to 100 | < 80 |
| CCN(C(=O)C(C)C(C)SC)c1sc(-c2cccnc2)nc1Cl (stereo not shown) [Compound 538] | 80 to 100 | 80 to 100 |
| CCN(C(=O)C(C)c1ccc(Cl)cc1)c1sc(-c2cccnc2)nc1Cl (stereo not shown) [Compound 540] | 80 to 100 | 80 to 100 |
| CCN(C(=O)c1cnco1)c1sc(-c2cccnc2)nc1Cl [Compound 542] | 80 to 100 | 80 to 100 |
| CCN(C(=O)c1ccc(C(C)=O)s1)c1sc(-c2cccnc2)nc1Cl [Compound 543] | 80 to 100 | 80 to 100 |
| CCN(C(=O)c1ccnc(C)c1)c1sc(-c2cccnc2)nc1Cl [Compound 544] | 80 to 100 | < 80 |
| CCN(C(=O)c1ccc(CSC)o1)c1sc(-c2cccnc2)nc1Cl [Compound 545] | 80 to 100 | < 80 |
| CCN(C(=O)c1ccc(C[S+](C)[O-])o1)c1sc(-c2cccnc2)nc1Cl (stereo not shown) [Compound 549] | 80 to 100 | 80 to 100 |
| CCN(C(=O)Cc1cccs1)c1sc(-c2cccnc2)nc1Cl [Compound 550] | < 80 | 80 to 100 |

| SMILES | pest or weed control at 200 ppm [1] [%] | pest or weed control at 200 ppm [2] [%] |
| --- | --- | --- |
| CCN(C(=O)C1C(C=C(Cl)Cl)C1(C)C)c1sc(-c2cccnc2)nc1Cl (stereo not shown) [Compound 552] | 80 to 100 | < 80 |
| CN(C(=O)C1CCCC1)c1sc(-c2cccnc2)nc1Cl [Compound 553] | < 80 | 80 to 100 |
| CCN(C(=O)c1cccs1)c1sc(-c2cccnc2)nc1Cl [Compound 554] | < 80 | < 80 |
| CCN(C(=O)c1scnc1C)c1sc(-c2cccnc2)nc1Cl [Compound 555] | 80 to 100 | < 80 |
| CCN(C(=O)c1snnc1C)c1sc(-c2cccnc2)nc1Cl [Compound 556] | 80 to 100 | < 80 |
| CCN(C(=O)Cc1ccc(C(C)=O)s1)c1sc(-c2cccnc2)nc1Cl [Compound 557] | < 80 | < 80 |
| CCC(C[S+](C)[O-])C(=O)N(CC)c1sc(-c2cccnc2)nc1Cl (stereo not shown) [Compound 559] | 80 to 100 | 80 to 100 |
| CCC(CS(C)(=O)=O)C(=O)N(CC)c1sc(-c2cccnc2)nc1Cl (stereo not shown) [Compound 560] | 80 to 100 | 80 to 100 |
| CCN(C(=O)Cc1ccc(Cl)nc1)c1sc(-c2cccnc2)nc1Cl [Compound 561] | 80 to 100 | < 80 |
| CCN(C(=O)Cc1ccncc1)c1sc(-c2cccnc2)nc1Cl [Compound 562] | 80 to 100 | < 80 |
| CCN(C(=O)c1c(F)cccc1F)c1sc(-c2cccnc2)nc1Cl [Compound 563] | 80 to 100 | < 80 |
| CCN(C(=O)C(C)C(C)[S+](C)[O-])c1sc(-c2cccnc2)nc1Cl (stereo not shown) [Compound 565] | 80 to 100 | 80 to 100 |
| CN(C(=O)C1(C)CC1)c1sc(-c2cccnc2)nc1Cl [Compound 566] | 80 to 100 | 80 to 100 |
| Cc1nc(-c2cccnc2)sc1N(CCS(C)(=O)=O)C(=O)OC(C)(C)C [Compound 568] | < 80 | < 80 |
| CC1CC1C(=O)N(C)c1sc(-c2cccnc2)nc1Cl (stereo not shown) [Compound 569] | 80 to 100 | 80 to 100 |
| CCN(C(=O)c1cccnc1)c1sc(-c2cccnc2)nc1Cl [Compound 571] | 80 to 100 | < 80 |
| CCN(C(=O)c1ccoc1)c1sc(-c2cccnc2)nc1Cl [Compound 573] | < 80 | < 80 |
| CCN(C(=O)c1ccccn1)c1sc(-c2cccnc2)nc1Cl [Compound 574] | 80 to 100 | < 80 |
| CCN(C(=O)Cc1ccc(Cl)cc1)c1sc(-c2cccnc2)nc1Cl [Compound 575] | 80 to 100 | < 80 |
| CCN(C(=O)c1ccco1)c1sc(-c2cccnc2)nc1Cl [Compound 576] | 80 to 100 | < 80 |

— patent US8853246B2 (Dow AgroSciences LLC, priority 2009, dated 2014)
